# Experimental data published in patent US11932629B2, “KDM1A inhibitors for the treatment of disease” (Imago Biosciences, Inc., priority 2018, dated 2024).
# Target: LSD1 (Homo sapiens, UniProt O60341)
# Experiment: LSD1 fluorescence coupling enzyme assay (HRP/Amplex Red), 10-dose IC50 mode
# Type: biochemical
# Conditions: 10-dose IC50 mode, 3-fold serial dilution in duplicate starting at 100 μM; 10 μM histone H3(1-21)K4me2 peptide substrate; read-out: RB LSD1 ave
# Method: Compounds were tested in a 10-dose IC50 mode fluorescence coupling enzyme assay with 3-fold serial dilution in duplicate starting at 100 μM. The production of FAD-dependent H2O2 as a result of demethylase activity of LSD1 on 10 μM histone H3(1-21)K4me2 peptide substrate was measured by coupling with HRP and Amplex Red to yield resorufin (fluorescence measured at Ex/Em=535/590 nm on EnVision, Perkin Elmer).
row,SMILES,IC50
1,"O=C(O)C1CCN(c2nc(CCCN[C@@H]3C[C@H]3c3ccc(F)cc3)c[nH]c2=O)CC1 [Example 10, 1-[6-(3-[([1R,2S]-2-[4-fluorophenyl]cyclopropyl)amino]propyl)-3-oxo-3,4-dihydropyrazin-2-yl]piperidine-4-carboxylic acid]",300 nM
2,"O=c1c(-c2cn[nH]c2)nc(CCCN[C@@H]2C[C@H]2c2ccc(F)cc2)cn1-c1ccc(F)cc1 [Example 36, 1-[4-fluorophenyl]-5-[3-([(1R,2S)-2-(4-fluorophenyl)cyclopropyl]amino)propyl]-3-[1H-pyrazol-4-yl]pyrazin-2(1H)-one]",13 nM
3,"O=c1[nH]cc(CCCN[C@@H]2C[C@H]2c2ccc(F)cc2)nc1N1CCC1 [Example 5, 3-[Azetidin-1-yl]-5-[3-([(1R,2S)-2-(4-fluorophenyl)cyclopropyl]amino)propyl]-pyrazin-2(1H)-one]",12 nM
4,"CN1CCN(c2nc(CCCN[C@@H]3C[C@H]3c3ccc(F)cc3)c[nH]c2=O)CC1=O [Example 41, 5-[3-([(1R,2S)-2-(4-fluorophenyl)cyclopropyl]amino)propyl]-3-[4-methyl-3-oxopiperazin-1-yl]pyrazin-2(1H)-one]",24 nM
5,"O=c1[nH]cc(CCCN[C@@H]2C[C@H]2c2ccc(F)cc2)nc1N1CCOCC1 [Example 4, 5-[3-([(1R,2S)-2-(4-fluorophenyl)cyclopropyl]amino)propyl]-3-morpholinopyrazin-2(1H)-one]",7 nM
6,"O=c1c(N2CCNCC2)nc(CCCN[C@@H]2C[C@H]2c2ccc(F)cc2)cn1-c1ccc(-c2cccnn2)cc1 [Example 29, 5-[3-([(1R,2S)-2-(4-fluorophenyl)cyclopropyl]amino)propyl]-3-[piperazin-1-yl]-1-[4-(pyridazin-3-yl)phenyl]pyrazin-2(1H)-one]",2 nM
7,"O=c1[nH]cc(CCCN[C@@H]2C[C@H]2c2ccc(F)cc2)nc1N1CCS(=O)(=O)CC1 [Example 32, 3-[1,1-Dioxidothiomorpholino]-5-[3-([(1R,2S)-2-(4-fluorophenyl)cyclopropyl]amino)propyl]pyrazin-2(1H)-one]",9 nM
8,"CN1CCN(c2nc(CCCN[C@@H]3C[C@H]3c3ccc(F)cc3)c[nH]c2=O)CC1 [Example 2, 5-[3-([(1R,2S)-2-(4-fluorophenyl)cyclopropyl]amino)propyl] 3-[4-methylpiperazin-1-yl]-pyrazin-2(1H)-one]",28 nM
9,"O=C1CN(c2nc(CCCN[C@@H]3C[C@H]3c3ccc(F)cc3)c[nH]c2=O)CCN1 [Example 48, 5-[3-([(1R,2S)-2-(4-fluorophenyl)cyclopropyl]amino)propyl]-3-[3-oxopiperazin-1-yl]pyrazin-2(1H)-one]",15 nM
10,"CN(C)S(=O)(=O)c1ccc(-n2cc(CCCN[C@@H]3C[C@H]3c3ccc(F)cc3)nc(N3CCNCC3)c2=O)cc1 [Example 14, 4-[5-(3-[([1R,2S]-2-[4-fluorophenyl]cyclopropyl)amino]propyl)-2-oxo-3-(piperazin-1-yl)pyrazin-1(2H)-yl]-N,N-dimethylbenzenesulfonamide]",10 nM
11,"O=c1[nH]cc(CCCN[C@@H]2C[C@H]2c2ccc(F)cc2)nc1N1CCNCC1 [Example 31, 5-[3-([(1R,2S)-2-(4-fluorophenyl)cyclopropyl]amino)propyl]-3-[piperazin-1-yl]pyrazin-2(1H)-one]",4 nM

# The remaining compounds from weak to strong by IC50, led by results:
row,IC50,SMILES
1,48 nM,"O=c1c(N2CCS(=O)(=O)CC2)nc(CCCN[C@@H]2C[C@H]2c2ccc(F)cc2)cn1C1CC1 [Example 8, 1-Cyclopropyl-3-[1,1-dioxidothiomorpholino]-5-[3-([(1R,2S)-2-(4-fluorophenyl)cyclopropyl]amino)propyl]pyrazin-2(1H)-one]"
2,17 nM,"O=c1c(N2CCNCC2)nc(CCCN[C@@H]2C[C@H]2c2ccc(F)cc2)cn1-c1ccc(-n2ccnn2)cc1 [Example 27, 1-[4-(1H-1,2,3-triazol-1-yl)phenyl]-5-[3-([(1R,2S)-2-(4-fluorophenyl)-cyclopropyl]amino)propyl]-3-[piperazin-1-yl]pyrazin-2(1H)-one]"
3,7 nM,"O=C1CN(c2nc(CCCN[C@@H]3C[C@H]3c3ccc(F)cc3)cn(Cc3ccccc3)c2=O)CCN1 [Example 46, 1-benzyl-5-[3-([(1R,2S)-2-(4-fluorophenyl)cyclopropyl]amino)propyl]-3-[3-oxopiperazin-1-yl]pyrazin-2(1H)-one]"
4,7 nM,"CS(=O)(=O)N1CCN(c2nc(CCCN[C@@H]3C[C@H]3c3ccc(F)cc3)c[nH]c2=O)CC1 [Example 3, 5-[3-([(1R,2S)-2-(4-fluorophenyl)cyclopropyl]amino)propyl]-3-[4-(methylsulfonyl)piperazin-1-yl]pyrazin-2(1H)-one]"
5,6 nM,"O=c1c(N2CCNCC2)nc(CCCN[C@@H]2C[C@H]2c2ccc(F)cc2)cn1-c1ccc(-c2ncccn2)cc1 [Example 28, 5-[3-([(1R,2S)-2-(4-fluorophenyl)cyclopropyl]amino)propyl]-3-[piperazin-1-yl]-1-[4-(pyrimidin-2-yl)phenyl]pyrazin-2(1H)-one]"
6,6 nM,"N#Cc1ccc(-n2cc(CCCN[C@@H]3C[C@H]3c3ccc(F)cc3)nc(N3CC4(COC4)C3)c2=O)cc1 [Example 44, 4-[5-(3-[([1R,2S]-2-[4-fluorophenyl]cyclopropyl)amino]propyl)-2-oxo-3-(2-oxa-6-azaspiro[3.3]heptan-6-yl)pyrazin-1(2H)-yl]benzonitrile]"
7,6 nM,"O=c1[nH]cc(CCCN[C@@H]2C[C@H]2c2ccccc2)nc1N1CCS(=O)(=O)CC1 [Example 9, 3-(1,1-Dioxidothiomorpholino)-5-(3-(((1R,2S)-2-phenylcyclopropyl)amino)propyl)pyrazin-2(1H)-one]"
8,4 nM,"O=c1c(N2CCNCC2)nc(CCCN[C@@H]2C[C@H]2c2ccc(F)cc2)cn1-c1ccc(F)cc1 [Example 26, 1-[4-Fluorophenyl]-5-[3-([(1R,2S)-2-(4-fluorophenyl)cyclopropyl]amino)propyl]-3-(piperazin-1-yl)pyrazin-2(1H)-one]"
9,2 nM,"CN(C)S(=O)(=O)c1ccc(-n2cc(CCCN[C@@H]3C[C@H]3c3ccc(F)cc3)nc(N3CCN(S(C)(=O)=O)CC3)c2=O)cc1 [Example 30, 4-[5-(3-[[(1R,2S)-2-(4-Fluorophenyl)cyclopropyl]amino]propyl)-3-(4-methanesulfonylpiperazin-1-yl)-2(1H)-oxopyrazin-1-yl]-N,N-dimethylbenzene-1-sulfonamide]"
